Data published in US11884649B2, “IRE1α inhibitors and uses thereof” (The Regents of the University of California, priority 2020, dated 2024).

Legend:
Type in all cases: biochemical
IRE1α* [1] = target: T1, IRE1α* (Homo sapiens, UniProt O75460); assay: In vitro kinase activity assay (IRE1α kinase inhibition)
T1 construct: human IRE1α (residues 547-977, IRE1α*) was expressed in SF9 insect cells; His6 (N); made in house; host or cells: Sf9 insect cells (Bac-to-Bac baculovirus)
Method: A construct containing the cytosolic kinase and RNase domains of human IRE1α (residues 547-977, IRE1α*) was expressed in SF9 insect cells by using the Bac-to-Bac baculovirus expression system (Invitrogen) with a His6 tag at the N-terminus and purified with a nickel-nitriloacetic acid (Qiagen) column. To generate dP-IRE1α*, we removed basal phosphorylation sites by incubating IRE1α* with λ-PPase (New England Biolabs) at a molar ratio of 5:1 (IRE1α*: λ-PPase) in 50 mM HEPES pH 7.5, 100 mM NaCl, 1 mM MnCl2, 2 mM dithiothreitol (DTT) and 0.01% Brij 35 detergent (v/v) overnight at 4° C. Dephosphorylation was verified through western blotting using a universal phospho-protein detection agent (biotin-pIMAGO (Tymora Analytical Operations, Cat. No.: FL800) and imaged using a streptavidin-linked fluorophore.
In Vitro Kinase Activity Assay
Inhibitors (initial concentration of 10 or 60 μM, three-fold serial dilutions) were incubated with IRE1α* in cleavage buffer (20 mM HEPES, 0.05% Triton X-100 (v/v), 50 mM KCl, 1 mM MgCl2, 1 mM DTT, pH 7.5) for 30 min, followed by incubation with 10 μCi [γ^32P] ATP (3,000 Ci mmol^−1, PerkinElmer) at 23° C. for 3 hours. Samples were then spotted onto glass fiber paper (Easytab-C Glass Fiber Filter Paper, Perkin Elmer) and washed in twice with 0.5% phosphoric acid and autoradiographed using a GE Typhoon FLA 9000 Imager. Blots were quantitated using ImageQuant software. The percent inhibition was quantified by setting the background (no kinase well) as 0 and standardizing to IRE1α* without compound treatment (IRE1α*+DMSO). Dose-response curves were fit using “one-site fit log IC50” parameter using GraphPad Prism analysis software.
Compound Characterization (IC50 IRE1α Kinase Inhibition)

IRE1α* [2] = target: T1, IRE1α*; assay: In vitro RNase activity assay, XBP1-mini substrate cleavage, inhibitor titrations; details: relative to apo IRE1α*
Method: In Vitro RNase Activity Assay Inhibitor Titrations
50 nM IRE1α* was incubated with inhibitor (initial concentration of 10 or 60 μM, three-fold serial dilutions) or DMSO for 30 min in assay buffer (20 mM Tris, 50 mM NaCl, 1 mM MgCl2, 2 mM DTT, 0.05% Triton X-100 (v/v), pH 7.5). Assays were initiated by adding 10 μL of XBP1-mini substrate (5′-Alex647-CAUGUCCGCAGCGCAUG-IowaBlack-FQ-3′ (SEQ ID NO: 1); IDT) to the wells at a final concentration of 200 nM and a final well volume of 30 μL. Fluorescence was detected on a Perkin Elmer Envision Microplate Reader at excitation and emission wavelengths of 650 nm and 665 nm. Dose-response curves were fit using “one-site fit log IC50” parameter using GraphPad Prism analysis software.

IRE1α* [3] = target: T1, IRE1α*; assay: In vitro Kdimer assay (dimerization affinity from RNase activity); details: 50 μM inhibitor
Text: In order to better understand how to achieve an optimal intermediate RNase activation state through engagement of IRE1α's kinase domain, we first established a quantitative in vitro framework for characterizing how ATP-binding site occupancy influences RNase activity. […] This dimeric state-commonly referred to as the “back-to-back” dimer—is characterized by an extensive interface between the kinase and RNase domains of each IRE1α protomer; this dimeric state can be promoted through mass action as IRE1α concentration is raised. […] Furthermore, ligands that occupy the ATP-binding site of the kinase domain can also stimulate IRE1α's RNase activity by promoting dimer formation. We measured the ability of a purified, recombinant kinase/RNase domain construct of IRE1α—called IRE1α*—to cleave a FRET-quenched XBP1 RNA mini-substrate as a function of IRE1α* concentration, in order to provide a quantitative metric of IRE1α's dimer affinity (Kdimer) (FIG. 1B).
IRE1α* or dPIRE1α* was titrated from either 2 μM or 4 μM in two-fold serial dilutions in assay buffer (20 mM Tris, 50 mM sodium chloride, 1 mM MgCl2, 2 mM DTT, 0.05% Triton X-100 (v/v), pH 7.5) and incubated with 50 μM inhibitor for 30 minutes at room temperature. Assays were initiated by adding 10 μL of XBP1-mini substrate (5′-Alex647-CAUGUCCGCAGCGCAUG-IowaBlack-FQ-3′ (SEQ ID NO:1); IDT) to the wells at a final concentration of 6 μM and a final well volume of 30 μL. Fluorescence was detected on a Perkin Elmer Envision Microplate Reader at excitation and emission wavelengths of 650 nm and 665 nm. Reaction process was monitored real time in 10-second intervals for at least 30 minutes. Initial rates of XBP1-cleavage were determined for each respective IRE1α* of dpIRE1α* concentration. Specific activity was then determined by dividing rate (RFU/s) by the respective IRE1α* of dpIRE1α* used (RFU/s*[IRE1α]). Kdimer values were determined by fitting these values using the non-linear regression ‘one-site total’ binding parameter in GraphPad Prism analysis software.

dpIRE1α* = target: T2, dpIRE1α* (Homo sapiens, UniProt O75460); assay: In vitro Kdimer assay with dephosphorylated construct; details: 50 μM inhibitor
T2 construct: human IRE1α (residues 547-977, IRE1α*) was expressed in SF9 insect cells; His6 (N); made in house; host or cells: Sf9 insect cells, then λ-PPase treatment
T2 sequence (O75460 547-977): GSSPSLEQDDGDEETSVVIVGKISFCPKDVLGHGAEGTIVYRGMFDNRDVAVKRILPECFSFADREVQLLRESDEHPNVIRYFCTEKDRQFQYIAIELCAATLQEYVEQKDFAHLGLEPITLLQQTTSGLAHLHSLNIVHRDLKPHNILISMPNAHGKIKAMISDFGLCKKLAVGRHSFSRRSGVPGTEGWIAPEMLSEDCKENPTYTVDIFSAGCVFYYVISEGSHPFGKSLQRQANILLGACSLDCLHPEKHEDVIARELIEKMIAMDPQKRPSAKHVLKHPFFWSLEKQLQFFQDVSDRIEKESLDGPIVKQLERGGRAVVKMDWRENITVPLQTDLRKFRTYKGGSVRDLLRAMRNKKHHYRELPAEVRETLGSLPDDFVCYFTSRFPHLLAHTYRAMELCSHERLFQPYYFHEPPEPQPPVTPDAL
Text: In order to better understand how to achieve an optimal intermediate RNase activation state through engagement of IRE1α's kinase domain, we first established a quantitative in vitro framework for characterizing how ATP-binding site occupancy influences RNase activity. […] This dimeric state-commonly referred to as the “back-to-back” dimer—is characterized by an extensive interface between the kinase and RNase domains of each IRE1α protomer; this dimeric state can be promoted through mass action as IRE1α concentration is raised. […] Furthermore, ligands that occupy the ATP-binding site of the kinase domain can also stimulate IRE1α's RNase activity by promoting dimer formation. We measured the ability of a purified, recombinant kinase/RNase domain construct of IRE1α—called IRE1α*—to cleave a FRET-quenched XBP1 RNA mini-substrate as a function of IRE1α* concentration, in order to provide a quantitative metric of IRE1α's dimer affinity (Kdimer) (FIG. 1B). […]
IRE1α* or dPIRE1α* was titrated from either 2 μM or 4 μM in two-fold serial dilutions in assay buffer (20 mM Tris, 50 mM sodium chloride, 1 mM MgCl2, 2 mM DTT, 0.05% Triton X-100 (v/v), pH 7.5) and incubated with 50 μM inhibitor for 30 minutes at room temperature. […] Fluorescence was detected on a Perkin Elmer Envision Microplate Reader at excitation and emission wavelengths of 650 nm and 665 nm. […]

T1 sequence (O75460 547-977): as above

SMILES | kinase activity of IRE1α* / ATP-binding site occupancy (in words) (IRE1α* [1]) | RNase activity of IRE1α* (in words) (IRE1α* [2]) | dimerization affinity of IRE1α* / formation of RNase active dimers (IRE1α* [3]) | formation of the RNase active dimer of dpIRE1α* (dpIRE1α*)
N[C@H]1CC[C@H](Nc2nccc(-c3cccnc3Oc3ccc(NS(=O)(=O)CCC(F)(F)F)c(F)c3)n2)CC1 [compound 3, N-(4-(3-(2-((1r,4r)-4-aminocyclohexylamino)pyrimidin-4-yl)pyridin-2-yloxy)-2-fluorophenyl)-3,3,3-trifluoropropane-1-sulfonamide] | dose-dependently inhibited | dose-dependently inhibited | completely suppressed the formation of RNase active dimers | 
NC(=O)Nc1cc(-c2cccc(F)c2)sc1C(=O)N[C@H]1CCCNC1 [AZD7762] |  |  | promotes the formation of the RNase active dimer of IRE1α* | promotes the formation of the RNase active dimer of dpIRE1α*
